In a melting point compilation (Tetko et al.; mined from patent text by program, amines drawn as free bases though some values may be those of a salt):

First: Cc1cc(S(=O)(=O)O)ccc1NC(=O)NN
Second: COc1cccc(NCC(=O)Nc2ccc(S(N)(=O)=O)cc2Cl)c1
The melting point of the first is higher: 252 to 255 °C for the first, 148 to 152 °C for the second.

First: COC(=O)c1cc(OC(C)=O)c2cc[nH]c2c1
Second: COC(=O)c1ccccc1S(=O)(=O)NCC(=O)Nc1cc(C)on1
The melting point of the first is higher: 160 to 162 °C for the first, 153 to 156 °C for the second.

First: NC(=C[N+](=O)[O-])NC1CCCCCC1
Second: CNC(=O)c1cc(-c2ccc(OC)cc2)nn(CC2CCCC2)c1=O
The melting point of the first is higher: 118 to 125 °C for the first, 107 to 108 °C for the second.

Compared with `N#CCCC(C#N)CSc1ccc(Cl)c(Cl)c1` (stereo not given), `Cc1cccc(CN(CCC(=O)O)c2nc(N)nc(Cl)n2)c1` is higher in melting point: 53 to 55 °C for the first, 168 to 170 °C for the second.

First: CC1(C)O[C@H]2[C@H](OCc3ccccc3)O[C@H](C(=O)O)[C@H]2O1
Second: C[C@@H]1OC(=O)N[C@H]1Cc1ccccc1
The melting point of the first is lower: 79 °C for the first, 116 °C for the second.

First: CC(C)(CCBr)CC(=O)O
Second: CCCNC(=O)NS(=O)(=O)c1ccccc1I
The melting point of the first is lower: 53 to 55 °C for the first, 211 to 212 °C for the second.

Compared with `COC(=O)C(Cc1ccc(O)cc1)OC` (stereo not given), `COc1ccc(-c2ccc(C=NO)o2)cc1OC` is higher in melting point: 61 to 63 °C for the first, 140 to 142 °C for the second.

Compared with `CNC(=O)CCc1ccc2cc(O[C@@H](C)[C@H](O)CCc3cccnc3)ccc2c1`, `CCOC(=O)c1cc(=O)c2c(OCCOc3ccc(NC(C)=O)cc3)cccc2o1` is higher in melting point: 68 to 70 °C for the first, 220 to 222 °C for the second.

First: Cc1nc(N)c2nc(CNC(=O)C3CC3)n(CC(C)C)c2c1C
Second: CCOC(=O)c1c(C(F)(F)F)nc(C(F)(F)F)c(C(=O)OCC)c1C
The melting point of the first is higher: 182 to 184 °C for the first, 55 to 58 °C for the second.

Compared with `COC(=O)NN(C(=O)Cl)c1cccc2c1OCC2`, `COc1ccc2c(c1)CCC1C2C(OC(C)=O)CC2(C)C(OC(C)=O)CCC12` (stereo not given) is higher in melting point: 110 to 112 °C for the first, 214 to 215 °C for the second.

First: CC(C)c1cc(C(=O)Nc2ccc(C(=O)O)cc2)sc1C(C)C
Second: CC(C)Nc1cccnc1N1CCN(C(=O)c2ccc(C(=O)N(C)CCO)cc2)CC1
The melting point of the first is higher: 219 to 221 °C for the first, 131 to 132 °C for the second.

`FC(F)(F)c1ccc(C=Nc2c3c(nc4ccccc24)CCCC3)cc1` and `NC(=O)CC1=C(n2nc(-c3c(-c4ccccc4)nn4ccccc34)ccc2=O)CCCC1` cannot be ordered by melting point: 203 to 205 °C for the first, 204 to 205 °C for the second.

First: C[C@@H]1Cc2ccsc2[C@H](C)N1CCNC(=O)c1ccc(NS(=O)(=O)c2ccc(Cl)cc2)cc1 (relative stereo)
Second: CS(=O)(=O)c1ccc(-c2ccc(C=O)n2-c2ccc(F)cc2)cc1
The melting point of the first is lower: 107 to 111 °C for the first, 111 to 112 °C for the second.

Compared with `COc1cc(Cn2cc3c(CC(C)C)nn(C)c(=O)c3c2)cc(OC)c1OC`, `CCCCc1nc2cc(C(=O)O)ccc2n1Cc1ccc(-c2ccccc2-c2nnn[nH]2)cc1` is higher in melting point: 154 to 155 °C for the first, 180 to 182 °C for the second.

First: NS(=O)(=O)c1ccc(-n2nc(C(F)F)cc2-c2nc3cccc(Cl)c3s2)cc1
Second: Cc1c(-c2ccccc2)n(-c2c(F)cccc2F)c(-c2ccccc2Cl)cc1=O
The melting point of the first is higher: 238 to 239 °C for the first, 213 to 215 °C for the second.

First: NOCc1cn(C(c2ccccc2)(c2ccccc2)c2ccccc2)cn1
Second: c1ccc(-c2ccc(-c3nc(-c4ccc(-c5ccccc5)cc4)nc(-c4ccc(-c5ccccc5)cc4)n3)cc2)cc1
The melting point of the first is lower: 138 to 139 °C for the first, 283 °C for the second.

First: Cc1ccc(OC2CCN(C(=O)C(=O)Nc3ccc4c(c3)CC(=O)N4)CC2)cc1
Second: CCCCOc1ccc(-c2ccc3c(c2)C=C(C(=O)Nc2ccc(CN(C)C4CCOCC4)cc2)CCS3(=O)=O)cc1
The melting point of the first is lower: 109 to 112 °C for the first, 233 to 236 °C for the second.

First: Cc1ccc(C(=O)C(=NN)c2ccc(C)cc2)cc1
Second: NC(N)=NC(=O)c1ccccc1Sc1ccccc1C(=O)N=C(N)N
The melting point of the first is lower: 137 to 140 °C for the first, greater than 220 °C for the second.

First: CC(=O)Oc1cccc(C=C2CCCc3cc(C)cnc32)c1
Second: O=C(NCCO)c1ccc2c3c(cc([N+](=O)[O-])c2c1)NCC3CCl (stereo not given)
The melting point of the first is lower: 66 to 68 °C for the first, 150 to 151 °C for the second.

First: O=C(O)CNC(=O)Nc1cccc(C(=O)O)c1
Second: COC(=O)C1CCC2C3CCC4CC(O)C(Br)CC4(C)C3C(=O)CC12C (stereo not given)
The melting point of the first is lower: 196 to 197 °C for the first, 205 to 208 °C for the second.
